The values below come from patent US10507214B2 (Druggability Technologies IP Holdco Limited, priority 2016, dated 2019).

The conditions of data set [1]: cited from earlier work.
For data set [2] the following is noted: cited from earlier work. The source holds these as a separate data set.
For data set [3] the following is noted: single dose of 200 mg of current formulation; cited from earlier work.
The conditions of data set [4]: healthy subjects, within the clinical dose range; cited from earlier work.
The next data set can be described thus: PAMPA permeability. It counts as in vitro ADME. As to conditions: pH 7, in water, FaSSIF and FeSSIF.
Data set [5] can be described thus: In-vivo PK test in beagle dogs. As to conditions: oral, dispersed granulates, beagle dogs following a high-fat meal.
Data set [6] is described as follows: Apparent solubility by UV-VIS spectroscopy after 100 nm filtration. It counts as physicochemical. As to conditions: thermodynamic from solid; redispersed at 2 mg/mL in ultrapurified water, room temperature. From the text:
The resulting solutions were filtered by 100 nm disposable syringe filter.

Setting [7] is: single oral dose of radiolabeled drug.

In brackets after ≈: the same amount, converted by molar mass. Where two headings read alike, the source gives them in different places. Bounds are passed on as bounds.

As to `Cc1ccc(-c2cc(C(F)(F)F)nn2-c2ccc(S(N)(=O)=O)cc2)cc1` [Celecoxib, 4-[5-(4-methylphenyl)-3-(trifluoromethyl)-1H-pyrazol-1-yl] benzenesulfonamide], the solubility in chloroform entry in data set [1] (chloroform) is on record as “soluble”. Further, the solubility in methanol entry in data set [1] (methanol) is on record as “soluble”. For the same compound, in data set [1] (water), the solubility in water result was “insoluble”. In data set [2] (after an oral dose), the “time of peak plasma levels” value is listed as “approximately 3 hrs”. In data set [2] (fasted conditions), the effective half-life entry is listed as “approximately 11 hours”. The “dose proportionality of Cmax and AUC” value in data set [2] (fasting conditions, up to 200 mg BID) is “roughly dose-proportional”. Also, the “overall systemic exposure (AUC), intact capsule versus capsule contents sprinkled on applesauce” value in data set [2] (healthy adult volunteers) is on record as “equivalent”. Further, in data set [2] (in vivo), the “apparent plasma clearance (CL/F)” value is listed as “about 500 mL/min”; the “unchanged drug recovered in the urine and feces” value was below 3%. In data set [2] (multiple dosing), the steady-state conditions reached was at most 5 days. For the same compound, the “time of peak plasma levels” value in data set [2] (single dose of 200 mg of current formulation, oral) was 3 h. In data set [2] (setting [7]), the “carboxylic acid metabolite in urine and feces” value is 73 % of dose; the “dose excreted in the feces” value is listed as “approximately 57%”; the “dose excreted into the urine” value is listed as around 27%. In data set [3], the “onset of pain relief” value was at least 1 h. The protein bound in data set [4] is around 97%.
For orientation: Papp means the rate of passage across a membrane or cell layer, normalised by area and donor concentration. By Tmax is commonly meant the time at which the peak concentration occurs. As a reminder, the solubility is how much of the substance goes into solution per volume. On to `Cc1ccc(-c2cc(C(F)(F)F)nn2-c2ccc(S(N)(=O)=O)cc2)cc1` [crystalline Celecoxib (micronized)], for which the apparent permeability coefficient (Papp) at 4 h in “PAMPA permeability” was below 0.2 ×10⁻⁶ cm/s. In data set [5] (dog, plasma, 5 mg/kg), the Tmax is 2 h. In data set [5], the t250 ng/ml amounted to 45 min. Further, the solubility in data set [6] came to 2.85 µg/mL (≈ 7.47 µM).
